Results from US20100298141A1, “SUBSTITUTED PYRIDINE N-OXIDE HERBICIDES” (E. I. DU PONT DE NEMOURS AND COMPANY, priority 2007, published 2010).

Columns and labels:
Experiment in all cases: Test F preemergence test
Conditions in all cases: scale 0 to 100
[1] = tested on: barnyardgrass; type: in vivo, Echinochloa crus-galli
How it was run: (§1)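 Test chemicals were formulated in a non-phytotoxic solvent mixture with surfactant and applied preemergence to planted seeds or postemergence to sugarcane plants. Plants were kept in a greenhouse for 14 to 21 days, then visually evaluated against controls.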

[2] = tested on: annual bluegrass; type: in vivo, Poa annua
How it was run: as §1

[3] = tested on: prickly sida; type: in vivo, Sida spinosa
How it was run: as §1

[4] = tested on: mustard; type: in vivo, Brassica nigra
How it was run: as §1

[5] = tested on: field bindweed; type: in vivo, Convolvulus arvensis
How it was run: as §1

[6] = tested on: Canada horseweed; type: in vivo, Conyza canadensis
How it was run: as §1

[7] = tested on: common purslane; type: in vivo, Portulaca oleracea
How it was run: as §1

[8] = tested on: Italian ryegrass; type: in vivo, Lolium multiflorum
How it was run: as §1

[9] = tested on: large crabgrass; type: in vivo, Digitaria sanguinalis
How it was run: as §1

[10] = tested on: pitted morningglory; type: in vivo, Ipomoea lacunosa
How it was run: as §1

[11] = tested on: quackgrass; type: in vivo, Elytrigia repens
How it was run: as §1

[12] = tested on: southern sandbur; type: in vivo, Cenchrus echinatus
How it was run: as §1

[13] = tested on: Surinam grass; type: in vivo, Brachiaria decumbens
How it was run: as §1

[14] = tested on: common ragweed; type: in vivo, Ambrosia elation
How it was run: as §1

[15] = tested on: common chickweed; type: in vivo, Stellaria media
How it was run: as §1

[16] = tested on: green foxtail; type: in vivo, Setaria viridis
How it was run: as §1

[17] = tested on: common mallow; type: in vivo, Malva sylvestris
How it was run: as §1

[18] = tested on: bermudagrass; type: in vivo, Cynodon dactylon
How it was run: as §1

[19] = tested on: naked crabgrass; type: in vivo, Digitaria nuda
How it was run: as §1

[20] = tested on: guineagrass; type: in vivo, Panicum maximum
How it was run: as §1

Cn1nc(C(F)(F)F)c(C[S+]([O-])c2cccc[n+]2[O-])c1Cl (stereo not drawn) [Compound 8]
Barnyardgrass plant response rating ([1]; 62 g ai/ha, Preemergence): 95
Barnyardgrass plant response rating ([1]; 125 g ai/ha, preemergence): 100
Plant response rating, Barnyardgrass ([1]; Preemergence, 16 g ai/ha): 70
Plant response rating, Barnyardgrass ([1]; Preemergence, 31 g ai/ha): 80
Bluegrass plant response rating ([2]; 62 g ai/ha, Preemergence): 0
Bluegrass plant response rating ([2]; 125 g ai/ha, preemergence): 70
Plant response rating, Bluegrass ([2]; Preemergence, 16 g ai/ha): 0
Plant response rating, Bluegrass ([2]; Preemergence, 31 g ai/ha): 0
Prickly Sida plant response rating ([3]; 62 g ai/ha, Preemergence): 70
Prickly Sida plant response rating ([3]; 125 g ai/ha, preemergence): 90
Plant response rating, Prickly Sida ([3]; Preemergence, 16 g ai/ha): 20
Plant response rating, Prickly Sida ([3]; Preemergence, 31 g ai/ha): 20
Black Mustard plant response rating ([4]; 62 g ai/ha, Preemergence): 80
Black Mustard plant response rating ([4]; 125 g ai/ha, preemergence): 95
Plant response rating, Black Mustard ([4]; Preemergence, 16 g ai/ha): 0
Plant response rating, Black Mustard ([4]; Preemergence, 31 g ai/ha): 70
Field Bindweed plant response rating ([5]; 62 g ai/ha, Preemergence): 15
Field Bindweed plant response rating ([5]; 125 g ai/ha, preemergence): 70
Plant response rating, Field Bindweed ([5]; Preemergence, 16 g ai/ha): 0
Plant response rating, Field Bindweed ([5]; Preemergence, 31 g ai/ha): 0
Horseweed plant response rating ([6]; 62 g ai/ha, Preemergence): 100
Horseweed plant response rating ([6]; 125 g ai/ha, preemergence): 100
Plant response rating, Horseweed ([6]; Preemergence, 16 g ai/ha): 0
Plant response rating, Horseweed ([6]; Preemergence, 31 g ai/ha): 0
Purslane plant response rating ([7]; 62 g ai/ha, Preemergence): 15
Purslane plant response rating ([7]; 125 g ai/ha, preemergence): 20
Plant response rating, Purslane ([7]; Preemergence, 16 g ai/ha): 0
Plant response rating, Purslane ([7]; Preemergence, 31 g ai/ha): 0
Ryegrass, Italian plant response rating ([8]; 62 g ai/ha, Preemergence): 75
Ryegrass, Italian plant response rating ([8]; 125 g ai/ha, preemergence): 100
Plant response rating, Ryegrass, Italian ([8]; Preemergence, 16 g ai/ha): 0
Plant response rating, Ryegrass, Italian ([8]; Preemergence, 31 g ai/ha): 40
Crabgrass, Large plant response rating ([9]; 62 g ai/ha, Preemergence): 90
Crabgrass, Large plant response rating ([9]; 125 g ai/ha, preemergence): 98
Plant response rating, Crabgrass, Large ([9]; Preemergence, 16 g ai/ha): 0
Plant response rating, Crabgrass, Large ([9]; Preemergence, 31 g ai/ha): 65
Morningglory plant response rating ([10]; 62 g ai/ha, Preemergence): 0
Morningglory plant response rating ([10]; 125 g ai/ha, preemergence): 35
Plant response rating, Morningglory ([10]; Preemergence, 16 g ai/ha): 0
Plant response rating, Morningglory ([10]; Preemergence, 31 g ai/ha): 0
Quackgrass plant response rating ([11]; 62 g ai/ha, Preemergence): 40
Quackgrass plant response rating ([11]; 125 g ai/ha, preemergence): 70
Plant response rating, Quackgrass ([11]; Preemergence, 16 g ai/ha): 0
Plant response rating, Quackgrass ([11]; Preemergence, 31 g ai/ha): 0
Sandbur plant response rating ([12]; 62 g ai/ha, Preemergence): 80
Sandbur plant response rating ([12]; 125 g ai/ha, preemergence): 100
Plant response rating, Sandbur ([12]; Preemergence, 31 g ai/ha): 10
Surinam Grass plant response rating ([13]; 62 g ai/ha, Preemergence): 90
Surinam Grass plant response rating ([13]; 125 g ai/ha, preemergence): 100
Plant response rating, Surinam Grass ([13]; Preemergence, 31 g ai/ha): 70
Ragweed plant response rating ([14]; 62 g ai/ha, Preemergence): 35
Ragweed plant response rating ([14]; 125 g ai/ha, preemergence): 80
Plant response rating, Ragweed ([14]; Preemergence, 16 g ai/ha): 0
Plant response rating, Ragweed ([14]; Preemergence, 31 g ai/ha): 35
Chickweed plant response rating ([15]; 62 g ai/ha, Preemergence): 95
Chickweed plant response rating ([15]; 125 g ai/ha, preemergence): 98
Plant response rating, Chickweed ([15]; Preemergence, 16 g ai/ha): 0
Plant response rating, Chickweed ([15]; Preemergence, 31 g ai/ha): 60
Foxtail, Green plant response rating ([16]; 62 g ai/ha, Preemergence): 80
Foxtail, Green plant response rating ([16]; 125 g ai/ha, preemergence): 90
Plant response rating, Foxtail, Green ([16]; Preemergence, 16 g ai/ha): 0
Plant response rating, Foxtail, Green ([16]; Preemergence, 31 g ai/ha): 70
Mallow plant response rating ([17]; 62 g ai/ha, Preemergence): 60
Mallow plant response rating ([17]; 125 g ai/ha, preemergence): 80
Plant response rating, Mallow ([17]; Preemergence, 16 g ai/ha): 30
Plant response rating, Mallow ([17]; Preemergence, 31 g ai/ha): 30
Bermudagrass plant response rating ([18]; 62 g ai/ha, Preemergence): 75
Bermudagrass plant response rating ([18]; 125 g ai/ha, preemergence): 90
Plant response rating, Bermudagrass ([18]; Preemergence, 16 g ai/ha): 0
Plant response rating, Bermudagrass ([18]; Preemergence, 31 g ai/ha): 15
Crabgrass, Naked plant response rating ([19]; 62 g ai/ha, Preemergence): 90
Crabgrass, Naked plant response rating ([19]; 125 g ai/ha, preemergence): 100
Plant response rating, Crabgrass, Naked ([19]; Preemergence, 16 g ai/ha): 60
Plant response rating, Crabgrass, Naked ([19]; Preemergence, 31 g ai/ha): 75
Guineagrass plant response rating ([20]; 62 g ai/ha, Preemergence): 98
Guineagrass plant response rating ([20]; 125 g ai/ha, preemergence): 100
Plant response rating, Guineagrass ([20]; Preemergence, 16 g ai/ha): 35
Plant response rating, Guineagrass ([20]; Preemergence, 31 g ai/ha): 60
